The assay deals with cantharidin-induced inflammation of rat ear. Briefly: Cantharidin induced inflammation in the rat (topical activity, ear skin punch weight). It counts as in vivo, rat (Charles River CD, 21-day-old male). As to conditions: topical dose 100 μg, with 400 μg cantharidin in 0.1 ml vehicle on rat ears; 72 hours. As to the method: CANTHARIDIN INDUCED INFLAMMATION IN THE RAT
A solvent vehicle was prepared which was used to apply cantharidin or cantharidin and test compound to rats. The solvent vehicle was a solution of 1 part ethanol, 1.5 parts collodion, 2 parts acetone and 3 parts diethylether. When it was desired to apply cantharidin to rats, cantharidin was added to the solvent vehicle in such an amount that there were 400 μg of cantharidin in 0.1 ml of solvent vehicle. When it was desired to apply cantharidin and test compound to rats, cantharidin and test compound were added to the solvent vehicle in such amounts that there were both 400 μg of cantharidin and 100 μg of test compound in 0.1 ml of solvent vehicle. Cantharidin or cantharidin plus the test compound at a dose of 100 μg were applied topically to the outer surface of the ears of Charles River CD 21-day-old male rats in a volume of 0.1 ml of solvent vehicle described above. Separate groups of rats were treated with solvent vehicle alone, cantharidin alone, and cantharidin plus test compound. Autopsy was carried out 72 hours after cantharidin administration. Uniform punches were obtained through the site of application and weighed. Weight changes reflect effects on both the fluid and tissue components of the inflammatory process. […]

For `CN1CC=C(C2=Cc3ccccc3Cc3ccc(Br)cc32)CC1` [4-(2-bromodibenzo[a,d]cycloheptatriene-11-yl)-1,2,3,6-tetrahydro-1-methylpyridine], the “% Inhibition of Inflammation” value was found to be 37%.

With `CN1CC=C(C2=Cc3ccccc3Oc3ccc(Br)cc32)CC1` [4-(8-bromodibenz[b,f]oxepin-10-yl)-1,2,3,6-tetrahydro-1-methylpyridine], the “% Inhibition of Inflammation” value is 36%.

The record behind these values is patent US4595689A, “4-(8-bromodibenz[b,f]oxepin-10-yl)-1,2,3,6-tetrahydro-1-methylpyridine and 4-(2-bromodibenzo[a,d]cyclophetatriene-11-yl)-1,2,3,6-tetrahydro-1-methy lpyridine for dermal inflammation” (Hoffmann-LaRoche Inc., priority 1984, dated 1986).
